According to patent US10800752B2, “Substituted naphtho[2,3-b]furans as water-soluble prodrugs for preventing and/or treating cancer” (BOSTON BIOMEDICAL, INC., priority 2015, dated 2020):
Read-outs that look alike come from different tables or passages of the source.

Format: in vivo, CD1 (ICR) mice
Conditions: for Plasma Compound Concentration: Activated form 1 in plasma, 232.5 mg/kg (p.o.)
Source text: It was then centrifuged to obtain plasma.

## COC(=O)[C@@H](N)CCNC(=O)Oc1c2ccccc2c(OC(=O)NCC[C@H](N)C(=O)OC)c2oc(C(C)=O)cc12.Cl.Cl [Example 11]
0.25 hr, animal 1
  Plasma Compound Concentration: 18.86 µM
0.25 hr, animal 2
  Plasma Compound Concentration: 19.65 µM
0.25 hr, animal 3
  Plasma Compound Concentration: 25.31 µM
0.25 hr, mean
  Plasma Compound Concentration: 21.27 µM
0.5 hr, animal 1
  Plasma Compound Concentration: 17.48 µM
0.5 hr, animal 2
  Plasma Compound Concentration: 11.45 µM
0.5 hr, animal 3
  Plasma Compound Concentration: 17.11 µM
0.5 hr, mean
  Plasma Compound Concentration: 15.35 µM
1.0 hr, animal 1
  Plasma Compound Concentration: 10.87 µM
1.0 hr, animal 2
  Plasma Compound Concentration: 18.98 µM
1.0 hr, animal 3
  Plasma Compound Concentration: 15.93 µM
1.0 hr, mean
  Plasma Compound Concentration: 15.26 µM
2.0 hr, animal 1
  Plasma Compound Concentration: 13.53 µM
2.0 hr, animal 2
  Plasma Compound Concentration: 6.62 µM
2.0 hr, animal 3
  Plasma Compound Concentration: 13.57 µM
2.0 hr, mean
  Plasma Compound Concentration: 11.24 µM
4.0 hr, animal 1
  Plasma Compound Concentration: 6.12 µM
4.0 hr, animal 2
  Plasma Compound Concentration: 3.73 µM
4.0 hr, animal 3
  Plasma Compound Concentration: 11.49 µM
4.0 hr, mean
  Plasma Compound Concentration: 7.11 µM
6.0 hr, animal 1
  Plasma Compound Concentration: 2.37 µM
6.0 hr, animal 2
  Plasma Compound Concentration: 0.60 µM
6.0 hr, animal 3
  Plasma Compound Concentration: 0.75 µM
6.0 hr, mean
  Plasma Compound Concentration: 1.24 µM
24.0 hr, animal 3
  Plasma Compound Concentration: 0.04 µM
24.0 hr, mean
  Plasma Compound Concentration: 0.01 µM
Orally administered to mice
  concentration of 2-acetylnaphtho[2,3-b]furan-4,9-dione (Activated form 1) observed (in words): high concentration
